“And” between values parts separate entries of the source, which are not always exact repeats. Equal entries are not always repeated.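 Dose response: 5 concentrations. Exposure: 48 h. Format: 96-well plates. Endpoint: linear interpolation; highest concentration if not reached. GI50 = concentration required for 50% inhibition of growth. At the TGI there is no net growth.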
Legend:
Experiment in all cases: growth of human tumour cells (NCI), 48 h
786-0 renal = tested on: 786-0 renal
HCC-2998 colon = tested on: HCC-2998 colon
HOP-92 NSCLC = tested on: HOP-92 NSCLC
MALME-3M melanoma = tested on: MALME-3M melanoma
OVCAR-4 ovarian = tested on: OVCAR-4 ovarian
RPMI-8226 leukemia = tested on: RPMI-8226 leukemia
SF-268 CNS = tested on: SF-268 CNS
SK-OV-3 ovarian = tested on: SK-OV-3 ovarian
TK-10 renal = tested on: TK-10 renal
UACC-62 melanoma = tested on: UACC-62 melanoma

| SMILES | GI50 (786-0 renal) | TGI (786-0 renal) | GI50 (HCC-2998 colon) | TGI (HCC-2998 colon) | GI50 (HOP-92 NSCLC) | TGI (HOP-92 NSCLC) | GI50 (MALME-3M melanoma) | TGI (MALME-3M melanoma) | GI50 (OVCAR-4 ovarian) | TGI (OVCAR-4 ovarian) | GI50 (RPMI-8226 leukemia) | TGI (RPMI-8226 leukemia) | GI50 (SF-268 CNS) | TGI (SF-268 CNS) | GI50 (SK-OV-3 ovarian) | TGI (SK-OV-3 ovarian) | GI50 (TK-10 renal) | TGI (TK-10 renal) | GI50 (UACC-62 melanoma) | TGI (UACC-62 melanoma) |
| --- | --- | --- | --- | --- | --- | --- | --- | --- | --- | --- | --- | --- | --- | --- | --- | --- | --- | --- | --- | --- |
| COc1ccc(/C=C/C(=O)c2ccc(Nc3nc(Nc4ccc(F)cc4)nc(Nc4ccc(Cl)cc4)n3)cc2)cc1 | > 100 µM | > 100 µM | > 100 µM | > 100 µM | 31.1 µM | 88.7 µM | > 100 µM | > 100 µM | > 100 µM | > 100 µM | 6.91 µM | > 100 µM | > 100 µM | > 100 µM | > 100 µM | > 100 µM | > 100 µM | > 100 µM | > 100 µM | > 100 µM |
| O=c1c(O)cc2c(O)oc3c(=O)c(O)c(O)c4c(O)oc1c2c43 | – | > 100 µM | – | > 100 µM | – | > 100 µM | – | > 100 µM | – | 33.3 µM | – | > 100 µM | – | > 100 µM | – | > 100 µM | – | > 100 µM | – | > 100 µM |
| C=C1C(=O)c2cc3c(cc2C(c2cc(OC)c(OC)c(OC)c2)[C@@H]1C(=O)O)OCO3 (some centres undefined) | – | > 100 µM | – | > 100 µM | – | 75.4 µM | – | > 100 µM | – | – | – | > 100 µM | – | – | – | > 100 µM | – | > 100 µM | – | > 100 µM |
| C=C(COC(C)=O)CC(/C=C(\C)CC/C=C(\C)CO)OC(C)=O (centres undefined) | – | > 100 µM | – | > 100 µM | – | > 100 µM | – | – | – | > 100 µM | – | – | – | > 100 µM | – | > 100 µM | – | > 100 µM | – | > 100 µM |
| N#Cc1c(-c2ccccc2)cc(-c2cccs2)c(C#N)c1N | – | > 100 µM | – | > 100 µM | – | > 100 µM | – | > 100 µM | – | > 100 µM | – | > 100 µM | – | > 100 µM | – | – | – | > 100 µM | – | – |
| C=C1c2[nH]c3ccccc3c2CC(C(=O)O)N1C(O)c1ccc(S(=O)(=O)O)cc1 (centres undefined) | – | > 100 µM | – | > 100 µM | – | > 100 µM | – | > 100 µM | – | > 100 µM | – | > 100 µM | – | > 100 µM | – | > 100 µM | – | > 100 µM | – | > 100 µM |
| O=C([O-])CCc1ccccc1.O=C([O-])CCc1ccccc1.O=C([O-])CCc1ccccc1.O=C([O-])CCc1ccccc1.[Mo+2].[Mo+2] | > 100 µM | > 100 µM | > 100 µM | > 100 µM | 43.4 µM | > 100 µM | > 100 µM | > 100 µM | > 100 µM | > 100 µM | > 100 µM | > 100 µM | > 100 µM | > 100 µM | > 100 µM | > 100 µM | > 100 µM | > 100 µM | > 100 µM | > 100 µM |
| OCCCc1cnco1 | – | > 100 µM | – | > 100 µM | – | > 100 µM | – | > 100 µM | – | > 100 µM | – | > 100 µM | – | > 100 µM | – | > 100 µM | – | > 100 µM | – | > 100 µM |
| O=C1NC(=O)C(c2ccccc2)=C1Nc1ccccc1 | > 25 µM | > 25 µM | > 25 µM | > 25 µM | – | – | > 25 µM | > 25 µM | > 25 µM | > 25 µM | > 25 µM | > 25 µM | > 25 µM | > 25 µM | > 25 µM | > 25 µM | > 25 µM | > 25 µM | > 25 µM | > 25 µM |
| O=C(/C=C/c1cccc(S(=O)(=O)Nc2ccccc2)c1)NO | 2.17 µM and 0.934 µM | 12.6 µM and 11.2 µM | 0.519 µM and 0.258 µM | 2.48 µM and 1.91 µM | 0.27 µM and 0.074 µM | 2.19 µM and 1.21 µM | 0.251 µM and 0.0447 µM | 13.8 µM and 3.12 µM | 1.98 µM and 1.08 µM | > 100 µM | 0.248 µM | – | 1.22 µM and 0.324 µM | 15.6 µM and 8.91 µM | 0.457 µM and 0.486 µM | 6.64 µM and > 29.4 µM | 0.215 µM and 0.024 µM | 3.19 µM and 1.73 µM | – | 1.53 µM and 0.196 µM |
| CCCCCCc1cc2cc(-c3csc(/C=C/c4ccccc4)n3)c(=O)oc2cc1O | 4.62 µM | 17.1 µM | 6.41 µM | 29.3 µM | 4.32 µM | 17.7 µM | 14.7 µM | 34.6 µM | 3.56 µM | 13.7 µM | 4.84 µM | 19.7 µM | 11.6 µM | 28.9 µM | 28.1 µM | 80.3 µM | 29 µM | 69.5 µM | 13.9 µM | 28.1 µM |
| O=C(O)c1cn(C2CC2)c2cc(N3CCN(C(=O)Nc4nc(-c5ccc(Br)cc5)cs4)CC3)c(F)cc2c1=O | 1.75 µM | > 100 µM | 2.97 µM | > 100 µM | 2 µM | 6.88 µM | 0.853 µM | > 100 µM | – | – | 0.437 µM | > 100 µM | 1.23 µM | > 100 µM | – | – | – | – | – | – |
| NC(=S)N/N=C(\CCC(=O)Nc1ccccc1[N+](=O)[O-])CC(=O)c1ccco1 | – | > 100 µM | – | > 100 µM | – | > 100 µM | – | > 100 µM | – | > 100 µM | – | > 100 µM | – | > 100 µM | – | > 100 µM | – | > 100 µM | – | > 100 µM |
| C=CCC12CCC(=O)[C@@]1(C)CC=C(O)C2=O (some centres undefined) | – | > 100 µM | – | > 100 µM | – | > 100 µM | – | > 100 µM | – | > 100 µM | – | > 100 µM | – | > 100 µM | – | > 100 µM | – | > 100 µM | – | > 100 µM |
| O=C(c1cccs1)c1nc2cc(Cl)ccc2[n+]([O-])c1C(F)(F)F | > 100 µM | > 100 µM | 87.4 µM | > 100 µM | – | – | 99 µM | > 100 µM | > 100 µM | > 100 µM | 64 µM | > 100 µM | > 100 µM | > 100 µM | > 100 µM | > 100 µM | > 100 µM | > 100 µM | 67.8 µM | > 100 µM |
| COc1ncc(-c2ccc3nccc(C#CCN4CCN(S(C)(=O)=O)CC4)c3c2)cc1NS(=O)(=O)c1ccc(F)cc1F | 0.0522 µM | 3.56 µM | 0.0635 µM | 1.25 µM | – | – | 0.015 µM | 0.214 µM | 0.264 µM | 12 µM | 0.256 µM | 1.83 µM | 0.0985 µM | 3.93 µM | 0.0175 µM | 0.168 µM | – | – | 0.0342 µM | 0.307 µM |
| NCCCNc1nc2ccc(Cl)cc2c2c(=O)c3cc(F)ccc3sc12 | 1.92 µM | 5.88 µM | 1.89 µM | 4.38 µM | 1.58 µM | 6.51 µM | 6.91 µM | 23.2 µM | 4.3 µM | 18 µM | 2.77 µM | 9.79 µM | 4.1 µM | 18.2 µM | – | – | 3.08 µM | 11.1 µM | 2.83 µM | 8.41 µM |
